What all share (format): in vivo
A short description of data set [1]: Oral absorption in rats: plasma level by HPLC, AUC. Particulars: equimolar amount, in 0.5% aqueous methylcellulose solution, area under plasma level vs time curve. The method, then:
(§1) The compound of Synthesis Example 1, the compound of Example 7, and the compound of Example 20 were suspended or dissolved in a 0.5% aqueous methylcellulose solution. The resultant solutions were orally administered in an equimolar amount to dogs and rats. After the administration, the amount of each compound contained in plasma of each animal individual was quantitatively determined by HPLC. The absorption in each specimen was assayed by the area under a medicament level of plasma vs time curve (AUC). As a result, AUCs obtained by the compounds of Examples 7 and 20 as prodrugs were 3 to 4 times higher for the dog and 3 to 7 times higher for the rat compared with the compound of Synthesis Example 1 as an activator body.

Data set [2] can be described thus: Oral absorption in dogs: plasma level by HPLC, AUC. The note with it: equimolar amount, in 0.5% aqueous methylcellulose solution, area under plasma level vs time curve. The method, then: as §1
Data set [3] concerns ICR male mice. The note with it: ICR male mice (5 weeks old), dose of 2 g/kg, suspension in 0.5% aqueous methylcellulose solution. From the text: Acute Toxicity Test by Single Administration
The compound of Example 20 was homogeneously suspended in a 0.5% aqueous methylcellulose solution. The suspension was forcibly orally administered to ICR male mice (5 weeks old).

This is an account of results in patent US7238812B2, “Tricyclic triazolobenzazepine derivatives, process for producing the same, and antiallergic agents” (Meji Seika Kaisha, Ltd., priority 1997, dated 2007).

With `COc1cc2[nH]c(=O)c3nn(COC(=O)OC(C)C)nc3c(=O)c2cc1OC` [Example 7, 2-(Isopropoxycarbonyloxymethyl)-7,8-dimethoxy-4(5H),10-dioxo-2H-1,2,3-triazolo[4,5-c][1]benzazepine], the “AUC Rat” value in data set [1] stood at 0.6 ± 0.1 µM·h. In data set [2], the “AUC Dog” value amounted to 0.9 ± 0.1 µM·h.

For the compound `COc1cc2[nH]c(=O)c3nn(C(OC(=O)OC(C)C)C(C)C)nc3c(=O)c2cc1OC` (stereo not shown) [Example 20, 2-(1-Isopropoxycarbonyloxy-2-methylpropyl)-7,8-dimethoxy-4(5H),10-dioxo-2H-1,2,3-triazolo[4,5-c][1]benzazepine], the “Survival and abnormality after single forced oral administration” value in data set [3] is “all the mice survived and developed no abnormality”. In data set [1], the “AUC Rat” value is 1.4 ± 0.1 µM·h. Also, in data set [2], the “AUC Dog” value came out at 1.2 ± 0.3 µM·h.

In the case of `COc1cc2[nH]c(=O)c3nn[nH]c3c(=O)c2cc1OC` [Synthesis Example 1, 7,8-Dimethoxy-4(5H),10-dioxo-1H-1,2,3-triazolo[4,5-c][1]benzazepine, reference compound], the “AUC Rat” value in data set [1] was 0.2 ± 0.1 µM·h. Besides, the “AUC Dog” value in data set [2] is 0.3 ± 0.1 µM·h.
